IC50 data for 18 molecules are collected here from US12564638B2 (SHANGHAITECH UNIVERSITY, priority 2019, dated 2026).

Molecules are shown by their SMILES.

One test deals with HCC827 cells (EGFR Exon19 del, non-small cell lung cancer cells). Description: Cell viability assay (WST/CCK8), HCC827 cells. The test is classed as cell-based. Conditions: Homo sapiens, HCC827, 72 h, HCC827 (Exon19 Del), 72 hours, WST (CCK8); read-out: IC50 (half inhibitory concentration). An excerpt: The cell lines with abnormal EGFR expression used are as follows: • HCC827 cells (EGFR Exon19 del, non-small cell lung cancer cells); • PC9 cells (EGFR Exon 19 del, non-small cell lung cancer cells); • PC9BracA1 (EGFR Exon 19 del+T790M, non-small cell lung cancer cells) • H1975 (EGFR Exon T790M+L858R mutation, non-small cell lung cancer cell line) • BT474 cells (HER2 positive breast cancer cells)
All of the half inhibitory concentrations (IC50) of these compounds of the present invention were determined with WST reagent from Fuyuan Biotec Company. The specific experiment procedures are as follows: Cancer cells were planted in 96-well-plate at the density of 3 000 cells per well with 100 μL RPMI1640 completed culture medium. In the next day, compounds with indicated concentrations were added to the cells, DMSO was used as the negative control and the EGFR TKIs were used to treat cells as the positive groups. After 72 hours drug treatment, cell viability was measured by using the WST reagent following the instructions.
The cells were treated with the gradient concentration of these compounds (the maximum concentration: 10 μM; 3-fold dilution ratio, 10 concentration gradients) for 72 hours and then incubated with the WST (CCK8) reagent to determine the cell viability.
As to `COc1cc2ncnc(Nc3ccc(F)c(Cl)c3)c2cc1NC(=O)/C=C/CN1CCC(N2CCN(CCCCCNc3cccc4c3C(=O)N(C3CCC(=O)NC3=O)C4=O)CC2)CC1` (stereo not drawn) [SIAIS262071, (E)-N-(4-((3-chloro-4-fluorophenyl)amino)-7-methoxyquinazolin-6-yl)-4-(4-(4-(5-((2-(2,6-dioxopiperidin-3-yl)-1,3-dioxoisoindolin-4-yl)amino)pentyl)piperazin-1-yl)piperidin-1-yl)but-2-enamide], the IC50 was 5.9 nM.

Staying with this test, now noted: Homo sapiens, HCC827, 72 h, Table 3, poziotinib-based compounds; HCC827 (Exon19 Del); 72 hours; WST (CCK8); read-out: IC50 (half inhibitory concentration).
Turning to `COc1cc2ncnc(Nc3ccc(Cl)c(Cl)c3F)c2cc1OC1CCN(C(=O)CCOCCOCCOCCNc2cccc3c2C(=O)N(C2CCC(=O)NC2=O)C3=O)CC1` (stereo not drawn) [SIAIS249031, 4-((2-(2-(2-(3-(4-((4-((3,4-dichloro-2-fluorophenyl)amino)-7-methoxyquinazolin-6-yl)oxy)piperidin-1-yl)-3-oxopropoxy)ethoxy)ethoxy)ethyl)amino)-2-(2,6-dioxopiperidin-3-yl)isoindoline-1,3-dione], the IC50 was 28.2 nM.

Turning to `COc1cc2ncnc(Nc3ccc(Cl)c(Cl)c3F)c2cc1OC1CCN(C(=O)CCOCCOCCOCCC(=O)N[C@H](C(=O)N2C[C@H](O)C[C@H]2C(=O)NCc2ccc(-c3scnc3C)cc2)C(C)(C)C)CC1` [SIAIS249026, (2S,4R)-1-((S)-2-(tert-butyl)-16-(4-((4-((3,4-dichloro-2-fluorophenyl)amino)-7-methoxyquinazolin-6-yl)oxy)piperidin-1-yl)-4,16-dioxo-7,10,13-trioxa-3-azahexadecan-1-oyl)-4-hydroxy-N-(4-(4-methylthiazol-5-yl)benzyl)pyrrolidine-2-carboxamide], the IC50 is 266 nM.

For `COc1cc2ncnc(Nc3ccc(Cl)c(Cl)c3F)c2cc1OC1CCN(C(=O)CCOCCOCCNc2cccc3c2C(=O)N(C2CCC(=O)NC2=O)C3=O)CC1` (stereo not drawn) [SIAIS249030, 4-((2-(2-(3-(4-((4-((3,4-dichloro-2-fluorophenyl)amino)-7-methoxyquinazolin-6-yl)oxy)piperidin-1-yl)-3-oxopropoxy)ethoxy)ethyl)amino)-2-(2,6-dioxopiperidin-3-yl)isoindoline-1,3-dione], the IC50 came to 6.3 nM.

`COc1cc2ncnc(Nc3ccc(Cl)c(Cl)c3F)c2cc1OC1CCN(C(=O)CCOCCOCCC(=O)N[C@H](C(=O)N2C[C@H](O)C[C@H]2C(=O)NCc2ccc(-c3scnc3C)cc2)C(C)(C)C)CC1` [SIAIS249025, (2S,4R)-1-((S)-2-(3-(2-(3-(4-((4-((3,4-dichloro-2-fluorophenyl)amino)-7-methoxyquinazolin-6-yl)oxy)piperidin-1-yl)-3-oxopropoxy)ethoxy)propanamido)-3,3-dimethylbutanoyl)-4-hydroxy-N-(4-(4-methylthiazol-5-yl)benzyl)pyrrolidine-2-carboxamide]: the IC50 was determined as 158 nM.

The test is the same for the next values; noted with them: Homo sapiens, HCC827, 72 h, Table 4, gefitinib and sapitinib-based compounds; HCC827 (Exon19 Del); 72 hours; WST; read-out: IC50 (half inhibitory concentration).
Regarding `CNC(=O)CN1CCC(Oc2cc3c(Nc4cccc(Cl)c4F)ncnc3cc2OC)CC1` [Sapitinib (AZD8931), sapitinib, reference compound], the IC50 was 0.4 nM.

As for `COc1cc2ncnc(Nc3ccc(F)c(Cl)c3)c2cc1OC1CCN(CC(=O)NCCCCCCCCSc2cccc3c2CN(C2CCC(=O)NC2=O)C3=O)CC1` (stereo not drawn) [SIAIS293052, 2-(4-((4-((3-chloro-4-fluorophenyl)amino)-7-methoxyquinazolin-6-yl)oxy)piperidin-1-yl)-N-(8-((2-(2,6-dioxopiperidin-3-yl)-1-oxoisoindolin-4-yl)thio)octyl)acetamide], the IC50 came to 0.25 nM.

On to `COc1cc2ncnc(Nc3ccc(F)c(Cl)c3)c2cc1OCCCN1CCN(C(=O)CSc2cccc3c2CN(C2CCC(=O)NC2=O)C3=O)CC1` (stereo not drawn) [SIAIS184184, 3-(4-((2-(4-(3-((4-((3-chloro-4-fluorophenyl)amino)-7-methoxyquinazolin-6-yl)oxy)propyl)piperazin-1-yl)-2-oxoethyl)thio)-1-oxoisoindolin-2-yl)piperidine-2,6-dione], for which the IC50 was determined as 100 nM.

Regarding `COc1cc2ncnc(Nc3ccc(F)c(Cl)c3)c2cc1OC1CCN(CC(=O)NCCCSc2cccc3c2CN(C2CCC(=O)NC2=O)C3=O)CC1` (stereo not drawn) [SIAIS293048, 2-(4-((4-((3-chloro-4-fluorophenyl)amino)-7-methoxyquinazolin-6-yl)oxy)piperidin-1-yl)-N-(3-((2-(2,6-dioxopiperidin-3-yl)-1-oxoisoindolin-4-yl)thio)propyl)acetamide], the IC50 came to 23 nM.

With `COc1cc2ncnc(Nc3ccc(F)c(Cl)c3)c2cc1OCCCN1CCC(N2CCN(C(=O)CCCCCSc3cccc4c3CN(C3CCC(=O)NC3=O)C4=O)CC2)CC1` (stereo not drawn) [SIAIS262087, 3-(4-((6-(4-(1-(3-((4-((3-chloro-4-fluorophenyl)amino)-7-methoxyquinazolin-6-yl)oxy)propyl)piperidin-4-yl)piperazin-1-yl)-6-oxohexyl)thio)-1-oxoisoindolin-2-yl)piperidine-2,6-dione], the IC50 turned out to be 31 nM.

For `COc1cc2ncnc(Nc3ccc(F)c(Cl)c3)c2cc1OC1CCN(CC(=O)NCCCCSc2cccc3c2CN(C2CCC(=O)NC2=O)C3=O)CC1` (stereo not drawn) [SIAIS293049, 2-(4-((4-((3-chloro-4-fluorophenyl)amino)-7-methoxyquinazolin-6-yl)oxy)piperidin-1-yl)-N-(4-((2-(2,6-dioxopiperidin-3-yl)-1-oxoisoindolin-4-yl)thio)butyl)acetamide], the IC50 turned out to be 2.8 nM.

Take `COc1cc2ncnc(Nc3ccc(F)c(Cl)c3)c2cc1OCCCN1CCN(C(=O)CCCCCSc2cccc3c2CN(C2CCC(=O)NC2=O)C3=O)CC1` (stereo not drawn) [SIAIS184186, 3-(4-((6-(4-(3-((4-((3-chloro-4-fluorophenyl)amino)-7-methoxyquinazolin-6-yl)oxy)propyl)piperazin-1-yl)-6-oxohexyl)thio)-1-oxoisoindolin-2-yl)piperidine-2,6-dione]: the IC50 turned out to be 124 nM.

For the molecule `COc1cc2ncnc(Nc3ccc(F)c(Cl)c3)c2cc1OCCCN1CCN(C(=O)CCCSc2cccc3c2CN(C2CCC(=O)NC2=O)C3=O)CC1` (stereo not drawn) [SIAIS184185, 3-(4-((4-(4-(3-((4-((3-chloro-4-fluorophenyl)amino)-7-methoxyquinazolin-6-yl)oxy)propyl)piperazin-1-yl)-4-oxobutyl)thio)-1-oxoisoindolin-2-yl)piperidine-2,6-dione], the IC50 stood at 113 nM.

For `COc1cc2ncnc(Nc3cccc(Cl)c3F)c2cc1OC1CCN(CC(=O)NCCCCCCSc2cccc3c2CN(C2CCC(=O)NC2=O)C3=O)CC1` (stereo not drawn) [SIAIS293068, 2-(4-((4-((3-chloro-2-fluorophenyl)amino)-7-methoxyquinazolin-6-yl)oxy)piperidin-1-yl)-N-(6-((2-(2,6-dioxopiperidin-3-yl)-1-oxoisoindolin-4-yl)thio)hexyl)acetamide], the IC50 came to 1.2 nM.

For the molecule `COc1cc2ncnc(Nc3ccc(F)c(Cl)c3)c2cc1OCCCN1CCC(N2CCN(C(=O)CCCCSc3cccc4c3CN(C3CCC(=O)NC3=O)C4=O)CC2)CC1` (stereo not drawn) [SIAIS262086, 3-(4-((5-(4-(1-(3-((4-((3-chloro-4-fluorophenyl)amino)-7-methoxyquinazolin-6-yl)oxy)propyl)piperidin-4-yl)piperazin-1-yl)-5-oxopentyl)thio)-1-oxoisoindolin-2-yl)piperidine-2,6-dione], the IC50 was 59 nM.

The same test, now with this note: Homo sapiens, HCC827, 72 h, Table 5, afatinib-based compounds; HCC827 (Exon19 Del); 72 hours; WST; read-out: IC50 (half inhibitory concentration).
`O=C1CCC(N2C(=O)c3cccc(SCCOCC(=O)Nc4cc5c(Nc6ccc(F)c(Cl)c6)ncnc5cc4O[C@H]4CCOC4)c3C2=O)C(=O)N1` (stereo partly drawn) [SIAIS184152, N-(4-((3-chloro-4-fluorophenyl)amino)-7-(((S)-tetrahydrofuran-3-yl)oxy)quinazolin-6-yl)-2-(2-((2-(2,6-dioxopiperidin-3-yl)-1,3-dioxoisoindolin-4-yl)thio)ethoxy)acetamide]: the IC50 was 131 nM.

Staying with this test, now noted: Homo sapiens, HCC827, 72 h, Table 8, osimertinib-based compounds; HCC827; 72 hours; WST; read-out: IC50 (half inhibitory concentration).
Regarding `C=CC(=O)Nc1cc(Nc2nccc(-c3cn(C)c4ccccc34)n2)c(OC)cc1N(C)CCN(C)C(=O)CCCCCCCCCCSc1cccc2c1CN(C1CCC(=O)NC1=O)C2=O` (stereo not drawn) [SIAIS337061, N-(2-((2-acrylamido-5-methoxy-4-((4-(1-methyl-1H-indol-3-yl)pyrimidin-2-yl)amino)phenyl)(methyl)amino)ethyl)-11-((2-(2,6-dioxopiperidin-3-yl)-1-oxoisoindolin-4-yl)thio)-N-methylundecanamide], the IC50 amounted to 353 nM.

Consider `C=CC(=O)Nc1cc(Nc2nccc(-c3cn(C)c4ccccc34)n2)c(OC)cc1N(C)CCN(C)C(=O)COCCOCCOCCOCCOCCSc1cccc2c1CN(C1CCC(=O)NC1=O)C2=O` (stereo not drawn) [SIAIS337078, N-(2-((2-acrylamido-5-methoxy-4-((4-(1-methyl-1H-indol-3-yl)pyrimidin-2-yl)amino)phenyl)(methyl)amino)ethyl)-17-((2-(2,6-dioxopiperidin-3-yl)-1-oxoisoindolin-4-yl)thio)-N-methyl-3,6,9,12,15-pentaoxaheptadecanamide], for which the IC50 is 125 nM.
